Here are results for 21 molecules from patent publication US20190367516A1 (Bayer Pharma Aktiengesellschaft, priority 2015, published 2019).

Where two headings read alike, the source gives them in different places.

Test [1] deals with T1, human M2 receptor (Homo sapiens, UniProt P08172).
T1 sequence (P08172 1-466): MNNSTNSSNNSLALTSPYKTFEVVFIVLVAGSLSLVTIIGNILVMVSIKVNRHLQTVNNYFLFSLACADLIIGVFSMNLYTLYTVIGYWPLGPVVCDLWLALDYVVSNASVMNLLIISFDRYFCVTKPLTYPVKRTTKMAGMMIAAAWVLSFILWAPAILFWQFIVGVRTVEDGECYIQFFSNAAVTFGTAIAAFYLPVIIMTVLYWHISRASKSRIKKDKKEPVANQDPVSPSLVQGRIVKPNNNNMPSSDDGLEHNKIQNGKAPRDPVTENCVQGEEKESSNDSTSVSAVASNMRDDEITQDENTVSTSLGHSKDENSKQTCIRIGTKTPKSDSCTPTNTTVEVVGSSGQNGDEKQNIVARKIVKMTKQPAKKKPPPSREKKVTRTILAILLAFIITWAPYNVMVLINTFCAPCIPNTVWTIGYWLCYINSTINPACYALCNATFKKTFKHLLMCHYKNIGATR
To be noted: for Emax: read-out: Efficiency, boosting of the acetylcholine effect at EC20 acetylcholine concentration; for Efficiency: boosting of the acetylcholine effect at EC20 acetylcholine concentration.

Test [2] addresses T1, human M2 receptor. It is filed as cell-based. To be noted: α >1 = positive cooperativity.
The mark [3] stands for this setting: Receptor activity EC50, M2-GIRK1/4 activation test, acetylcholine at EC20, allosteric potency, in some cases mean values from two or more determinations.
The mark [4] stands for this setting: shift in the acetylcholine dose-response curve (Allosteric EC50 shift, GraphPad PRISM).
Setting [5] is: Receptor activity EC50, allosteric potency at EC20 acetylcholine, M2-GIRK1/4 reporter cells, in some cases mean of two or more determinations.
[6] abbreviates: shift of acetylcholine dose-response curve (Allosteric EC50 shift).

Regarding `CC1(F)CCN(c2ccc3c(=O)c(C(=O)NC45CC6CC(CC(C6)C4)C5)cn(-c4ccc(F)cc4F)c3n2)C1` (racemic) [Example 9, rac-1-(2,4-Difluorophenyl)-7-(3-fluoro-3-methylpyrrolidin-1-yl)-4-oxo-N-(tricyclo[3.3.1.1^3,7]dec-1-yl)-1,4-dihydro-1,8-naphthyridine-3-carboxamide], the EC50 at human M2 receptor [1] (setting [3]) was 40 nM. Besides, the “Cooperativity (alpha factor)” value at human M2 receptor [2] (setting [4]) is 11.

`CO[C@H]1CCN(c2ccc3c(=O)c(C(=O)N[C@@H](C4CC4)C(F)(F)F)cn(-c4c(F)cc(F)cc4F)c3n2)C1` [Example 535, N-[(1 S)-1-Cyclopropyl-2,2,2-trifluoroethyl]-7-[(3S)-3-methoxypyrrolidin-1-yl]-4-oxo-1-(2,4,6-trifluorophenyl)-1,4-dihydro-1,8-naphthyridine-3-carboxamide] showed an EC50 at human M2 receptor [1] (setting [5]) of 7 nM. Moreover, the Emax on human M2 receptor [1] (M2-GIRK1/4 reporter cells) stood at 100%. The “Cooperativity (alpha factor)” value on human M2 receptor [2] (setting [6]) came to 27.

`O=C(NC12CC(C1)C2)c1cn(-c2c(F)cc(F)cc2F)c2nc(N3C[C@@H](O)CC3=O)ccc2c1=O` [Example 358, N-(Bicyclo[1.1.1]pent-1-yl)-7-[(4S)-4-hydroxy-2-oxopyrrolidin-1-yl]-4-oxo-1-(2,4,6-trifluorophenyl)-1,4-dihydro-1,8-naphthyridine-3-carboxamide]: the EC50 on human M2 receptor [1] (setting [3]) turned out to be 24 nM. The “Cooperativity (alpha factor)” value on human M2 receptor [2] (setting [4]) was 31.

`CC[C@@H](COC(F)(F)F)NC(=O)c1cn(-c2c(F)cc(F)cc2F)c2nc(N3C[C@@H](C)NC3=O)ccc2c1=O` (single isomer, unassigned) [Example 455] registered an EC50 on human M2 receptor [1] (setting [5]) of 10 nM. This molecule displayed an Efficiency at human M2 receptor [1] (M2-GIRK1/4 reporter cells) of 100.0%. The “Cooperativity (alpha factor)” value at human M2 receptor [2] (setting [6]) was 17.

Molecule `C[C@@H](COC(F)(F)F)NC(=O)c1cn(-c2c(F)cc(F)cc2F)c2nc(N3C[C@@H](O)CC3=O)ccc2c1=O` [Example 339, 7-[(4S)-4-Hydroxy-2-oxopyrrolidin-1-yl]-4-oxo-N-[(2S)-1-(trifluoromethoxy)propan-2-yl]-1-(2,4,6-trifluorophenyl)-1,4-dihydro-1,8-naphthyridine-3-carboxamide] showed an EC50 at human M2 receptor [1] (setting [3]) of 44 nM. At human M2 receptor [2] (setting [4]), the “Cooperativity (alpha factor)” value came to 26.

As for `CC[C@H](NC(=O)c1cn(-c2c(F)cc(F)cc2F)c2nc(N3CCN/C3=N\C(=O)OC)ccc2c1=O)C(F)(F)F` [Example 377, Methyl {1-[5-oxo-6-{[(2S)-1,1,1-trifluorobutan-2-yl]carbamoyl}-8-(2,4,6-trifluorophenyl)-5,8-dihydro-1,8-naphthyridin-2-yl]imidazolidin-2-ylidene}carbamate], the EC50 on human M2 receptor [1] (setting [3]) was determined as 48 nM. Besides, the “Cooperativity (alpha factor)” value on human M2 receptor [2] (setting [4]) is 34.

Regarding `CC(NC(=O)c1cn(-c2ccc(F)cc2F)c2nc(NCC(F)(F)F)ccc2c1=O)C(F)(F)F` (stereo not shown) [Example 93, 1-(2,4-Difluorophenyl)-4-oxo-7-[(2,2,2-trifluoroethyl)amino]-N-[1,1,1-trifluoropropan-2-yl]-1,4-dihydro-1,8-naphthyridine-3-carboxamide], the EC50 on human M2 receptor [1] (setting [3]) amounted to 213 nM. Moreover, the “Cooperativity (alpha factor)” value on human M2 receptor [2] (setting [4]) was determined as 8.

Take `O=C(NC(c1c(F)cccc1F)C(F)(F)F)c1cn(-c2ccc(F)cc2F)c2nc(N3CCCC(O)C3=O)ccc2c1=O` (single isomer, unassigned) [Example 250, 1-(2,4-Difluorophenyl)-N-[1-(2,6-difluorophenyl)-2,2,2-trifluoroethyl]-7-[3-hydroxy-2-oxopiperidin-1-yl]-4-oxo-1,4-dihydro-1,8-naphthyridine-3-carboxamide]: a half-maximal effect at human M2 receptor [1] (setting [3]) (EC50) was put at 101 nM. Further, the “Cooperativity (alpha factor)” value on human M2 receptor [2] (setting [4]) is 27.

On human M2 receptor [1] (setting [3]), `O=C(NC(c1c(F)cccc1F)C(F)(F)F)c1cn(-c2ccc(F)cc2F)c2nc(N3CC[C@H](F)C3)ccc2c1=O` (single isomer, unassigned) [Example 243] gave an EC50 of 15 nM. Further, the “Cooperativity (alpha factor)” value at human M2 receptor [2] (setting [4]) amounted to 33.

On to `C[C@@H]1C[C@H](F)CN1c1ccc2c(=O)c(C(=O)NC34CC5CC(CC(C5)C3)C4)cn(-c3ccc(F)cc3F)c2n1` [Example 11, 1-(2,4-Difluorophenyl)-7-[(2R,4S)-4-fluoro-2-methylpyrrolidin-1-yl]-4-oxo-N-(tricyclo[3.3.1.1^3,7]dec-1-yl)-1,4-dihydro-1,8-naphthyridine-3-carboxamide], for which the midpoint of the response at human M2 receptor [1] (setting [3]), the EC50, lay at 61 nM. On human M2 receptor [2] (setting [4]), the “Cooperativity (alpha factor)” value was found to be 10.

Consider `O=C(NC12CC3CC(CC(C3)C1)C2)c1cn(-c2ccc(F)cc2F)c2nc(N3CCOC3=O)ccc2c1=O` [Example 128, 1-(2,4-Difluorophenyl)-4-oxo-7-(2-oxo-1,3-oxazolidin-3-yl)-N-(tricyclo[3.3.1.1^3,7]dec-1-yl)-1,4-dihydro-1,8-naphthyridine-3-carboxamide], for which the EC50 at human M2 receptor [1] (setting [3]) was found to be 57 nM. The “Cooperativity (alpha factor)” value at human M2 receptor [2] (setting [4]) turned out to be 18.

As for `CC(C)CC(NC(=O)c1cn(-c2ccc(F)cc2F)c2nc(N3CC[C@H](F)C3)ccc2c1=O)C(F)(F)F` (stereo partly drawn) [Example 65, 1-(2,4-Difluorophenyl)-7-[(3S)-3-fluoropyrrolidin-1-yl]-4-oxo-N-[1,1,1-trifluoro-4-methylpentan-2-yl]-1,4-dihydro-1,8-naphthyridine-3-carboxamide], on human M2 receptor [1] (setting [3]), a half-maximal effect (EC50) was put at 7 nM. Further, the “Cooperativity (alpha factor)” value at human M2 receptor [2] (setting [4]) is 36.

Regarding `CC(COC(F)(F)F)NC(=O)c1cn(-c2ccc(F)cc2F)c2nc(N3CC[C@H](F)C3)ccc2c1=O` (single isomer, unassigned) [Example 229], the EC50 at human M2 receptor [1] (setting [3]) came out at 52 nM. For the same molecule, the “Cooperativity (alpha factor)” value on human M2 receptor [2] (setting [4]) is on record as 13.

Turning to `CCC(COC(F)(F)F)NC(=O)c1cn(-c2c(F)cc(F)cc2F)c2nc(N3C[C@@H](O)CC3=O)ccc2c1=O` (single isomer, unassigned) [Example 412], on human M2 receptor [1] (setting [5]), it took 16 nM to reach a half-maximal effect (EC50). Also, on human M2 receptor [1] (M2-GIRK1/4 reporter cells), the Efficiency was 98.0%. Further, the “Cooperativity (alpha factor)” value on human M2 receptor [2] (setting [6]) is reported as 34.

`CC[C@@H](NC(=O)c1cn(-c2ccc(F)cc2F)c2nc(N3CCC(O)C3=O)ccc2c1=O)C(F)(F)F` (single isomer, unassigned) [Example 226] returned an EC50 at human M2 receptor [1] (setting [3]) of 83 nM. For the same molecule, at human M2 receptor [2] (setting [4]), the “Cooperativity (alpha factor)” value is listed as 35.

On human M2 receptor [1] (setting [3]), `CC[C@@H](NC(=O)c1cn(-c2ccc(F)cc2F)c2nc(N3CCC(C)(OC)C3=O)ccc2c1=O)C(F)(F)F` (mixture of isomers) [Example 197, 1-(2,4-Difluorophenyl)-7-[3-methoxy-3-methyl-2-oxopyrrolidin-1-yl]-4-oxo-N-[(2R)-1,1,1-trifluorobutan-2-yl]-1,4-dihydro-1,8-naphthyridine-3-carboxamide] had an EC50 of 120 nM. Further, the “Cooperativity (alpha factor)” value on human M2 receptor [2] (setting [4]) is given as 10.

As to `CC[C@H](NC(=O)c1cn(-c2c(F)cc(F)cc2F)c2nc(N3CCN(C(=O)OC)CC3)ccc2c1=O)C(F)(F)F` [Example 595, Methyl 4-[5-oxo-6-{[(2S)-1,1,1-trifluorobutan-2-yl]carbamoyl}-8-(2,4,6-trifluorophenyl)-5,8-dihydro-1,8-naphthyridin-2-yl]piperazine-1-carboxylate], on human M2 receptor [1] (setting [5]), it took 19 nM to reach a half-maximal effect (EC50). In addition, the Emax at human M2 receptor [1] (M2-GIRK1/4 reporter cells) came to 94%. Besides, the “Cooperativity (alpha factor)” value at human M2 receptor [2] (setting [6]) worked out at 36.

Regarding `CC[C@@H](NC(=O)c1cn(-c2ccc(F)cc2F)c2nc(N3CCC4(C3)CC4(F)F)ccc2c1=O)C(F)(F)F` (mixture of isomers) [Example 29, 7-(1,1-Difluoro-5-azaspiro[2.4]hept-5-yl)-1-(2,4-difluorophenyl)-4-oxo-N-[(2R)-1,1,1-trifluorobutan-2-yl]-1,4-dihydro-1,8-naphthyridine-3-carboxamide (diastereomer mixture)], at human M2 receptor [1] (setting [3]), the EC50 turned out to be 112 nM. Besides, on human M2 receptor [2] (setting [4]), the “Cooperativity (alpha factor)” value was determined as 4.

As to `O=C(N[C@@H](C1CC1)C(F)(F)F)c1cn(-c2c(F)cc(F)cc2F)c2nc(N3CCCN(CCO)C3=O)ccc2c1=O` [Example 364, N-[(1 S)-1-Cyclopropyl-2,2,2-trifluoroethyl]-7-[3-(2-hydroxyethyl)-2-oxotetrahydropyrimidin-1(2H)-yl]-4-oxo-1-(2,4,6-trifluorophenyl)-1,4-dihydro-1,8-naphthyridine-3-carboxamide], the concentration for a half-maximal effect (EC50) at human M2 receptor [1] (setting [3]) is 16 nM. Further, the “Cooperativity (alpha factor)” value at human M2 receptor [2] (setting [4]) came out at 25.

In the case of `CN(CCO)c1ccc2c(=O)c(C(=O)N[C@@H](C3CC3)C(F)(F)F)cn(-c3c(F)cc(F)cc3F)c2n1` [Example 384, N-[(1S)-1-Cyclopropyl-2,2,2-trifluoroethyl]-7-[(2-hydroxyethyl)(methyl)amino]-4-oxo-1-(2,4,6-trifluorophenyl)-1,4-dihydro-1,8-naphthyridine-3-carboxamide], on human M2 receptor [1] (setting [3]), the EC50 is 28 nM. Also, the “Cooperativity (alpha factor)” value on human M2 receptor [2] (setting [4]) is recorded as 22.

For the molecule `CN(CC(=O)O)c1ccc2c(=O)c(C(=O)N[C@@H](C3CC3)C(F)(F)F)cn(-c3c(F)cc(F)cc3F)c2n1` [Example 385, N-[6-{[(1S)-1-Cyclopropyl-2,2,2-trifluoroethyl]carbamoyl}-5-oxo-8-(2,4,6-trifluorophenyl)-5,8-dihydro-1,8-naphthyridin-2-yl]-N-methylglycine], on human M2 receptor [1] (setting [3]), the EC50 was 68 nM. For the same molecule, on human M2 receptor [2] (setting [4]), the “Cooperativity (alpha factor)” value was determined as 11.

What is called EC50 is the concentration that produces a half-maximal response.
